The values that follow come from US11077115B2, “Rorgamma modulators and uses thereof” (Genfit, priority 2017, dated 2021).

In experiment [1] the test system is multiple sclerosis model. The note with it: administered by injection; cited from earlier work.
For experiment [2], the system named is patients with moderate to severe psoriasis. Particulars: cited from earlier work.
Experiment [3] relates to psoriasis model. Particulars: administered by injection; cited from earlier work.
The target of experiment [4] is T1, human RORγt (Homo sapiens, UniProt P51449).
T1 sequence (P51449 1-497 isoform P51449-2): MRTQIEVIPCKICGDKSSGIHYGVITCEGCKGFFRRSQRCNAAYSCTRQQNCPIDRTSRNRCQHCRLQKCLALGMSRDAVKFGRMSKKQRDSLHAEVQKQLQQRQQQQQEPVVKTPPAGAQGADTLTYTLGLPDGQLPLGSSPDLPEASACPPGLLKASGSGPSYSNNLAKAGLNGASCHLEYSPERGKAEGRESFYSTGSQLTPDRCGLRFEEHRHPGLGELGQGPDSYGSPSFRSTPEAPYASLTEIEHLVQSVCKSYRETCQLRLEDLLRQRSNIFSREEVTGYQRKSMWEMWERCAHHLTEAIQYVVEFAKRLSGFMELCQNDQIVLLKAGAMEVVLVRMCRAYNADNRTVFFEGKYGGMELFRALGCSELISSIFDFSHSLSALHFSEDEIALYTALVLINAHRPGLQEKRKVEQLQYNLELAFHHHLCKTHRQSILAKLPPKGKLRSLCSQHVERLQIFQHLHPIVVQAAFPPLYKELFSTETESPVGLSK
In words: RORE Luciferase/RORγt transactivation assay (IL-17 promoter luciferase reporter in COS-7 cells). It counts as cell-based. Also noted: V5-His (named only through the vector pcDNA3.1D/V5-His-TOPO); expressed in transfected cells; host or cells: COS-7 (monkey kidney). The note with it: RORγt activity inhibition, luciferase activity in transfected COS-7 cells, 20 h. Put shortly:
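COS-7 cells co-transfected with human RORγt and luciferase reporter driven by 4.3 kb IL-17 promoter with CNS enhancer, seeded in serum-free, phenol red-free DMEM. Compounds added at 0.3% DMSO final; luciferase read by Steady-Glo luminescence. IC50 (μM) and Emax (%) reported.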
A general note: In a reporter assay the amount or activity of a reporter protein is the signal.

Experiment [5] deals with T2, RORγt ligand-binding domain (RORγt-LBD) (Homo sapiens, UniProt P51449).
T2 construct: 20 nM recombinantly expressed RORγ-LBD fused to GST
T2 sequence (P51449 269-508 limits assumed): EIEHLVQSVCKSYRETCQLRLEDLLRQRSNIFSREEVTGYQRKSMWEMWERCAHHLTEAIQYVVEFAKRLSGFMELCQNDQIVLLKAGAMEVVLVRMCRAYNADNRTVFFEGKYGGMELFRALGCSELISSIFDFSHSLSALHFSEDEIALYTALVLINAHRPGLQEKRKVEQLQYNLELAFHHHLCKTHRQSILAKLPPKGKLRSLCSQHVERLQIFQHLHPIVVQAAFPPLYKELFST
In words: Time-resolved FRET (TR-FRET) RORγt coactivator assay (RIP140 peptide displacement). It counts as biochemical. Particulars: ligand-dependent coactivator-RORγt binding. Put shortly:
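GST-tagged RORγt-LBD (20 nM) with 30 nM biotinylated RIP140 peptide, 1 nM streptavidin-terbium and 20 nM d2-anti-GST in CHAPS buffer with DTT, EDTA, BSA; 1% DMSO. Compounds 0.3 nM–30 μM, 2 h dark, room temperature. Coactivator displacement lowers TR-FRET signal; IC50 (μM) and Emax (%) derived.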

The target in experiment [6] is T1, human RORγt. In words: IL-17 secretion from EL4 murine lymphoma overexpressing human RORγt. Also noted: V5-His (named only through the vector pcDNA3.1D/V5-His-TOPO); expressed in transfected cells. Particulars: IL-17 secretion inhibition in human RORγt-transfected EL4 Tcells, PMA/ionomycin stimulation. It counts as cell-based. Here is the method: Murine EL-4 lymphoma cell line overexpressing human RORγt was used in this functional assay to assess compound ability to inhibit IL-17 cytokine secretion.
EL-4 cells are maintained in a standard culture medium RPMI supplemented with 10% fetal calf serum, 1% sodium pyruvate, 1% essential amino acids and 1% antibiotics at 37° C. in a humidified atmosphere of 5% CO2 and 95% air. Culture medium was changed every 2 days. EL4 cells were transfected with a plasmid encoding hRORγt (sequence identical to published sequence NM 001001523). […] Briefly, 1 μg of DNA/1 million cells was served to transfect EL-4 cells. Cell/DNA suspension was transferred into certified cuvette and the electroporation of RORγt plasmid was carried out using appropriate Nucleofector® program.
Cells were seeded in 96 well plates at a density of 150000 cells/well then treated with compounds of this invention at indicated concentrations and incubated for 24 hours at 37° C. in a humidified atmosphere of 5% CO2 and 95% air. EL-4 cells were pretreated with test compounds (RORγ modulators) and stimulated with PMA (10 ng/mL) and ionomycin (1 μM final concentration) in the presence of test compound concentrations for additional 24 h at 37° C. in a humidified atmosphere of 5% CO2 and 95% air. Subsequently, supernatants were collected (after centrifugation at 300 g for 10 minutes) to determine the concentrations of IL-17 by HTRF (CisBio, France) or ELISA (R&D Systems Europe) according to the manufacturer's protocols.

Setting [7] is: relative to placebo, patients with moderate to severe psoriasis.

Consider `CC(=O)Nc1nc(C)c(S(=O)(=O)Nc2ccc(C(O)(C(F)(F)F)C(F)(F)F)cc2)s1` [SR1001], for which the “efficacy in multiple sclerosis model” value in experiment [1] is reported as “efficacious”.

As for `CCS(=O)(=O)c1ccc(CNC(=O)c2cnc3c(c2)CN(C[C@H]2CC[C@H](C(F)(F)F)CC2)[C@H]3C(C)C)nc1` [VTP-43742], the “reduction in the Psoriasis Area Severity Index (PASI) score relative to placebo” value in experiment [2] (350 mg dose group) was 24%. Besides, the “placebo-adjusted PASI score reduction” value in experiment [2] (700 mg dose group) is given as 30%. For the same compound, in experiment [2] (setting [7]), the “Psoriasis Area Severity Index (PASI) score” value is listed as “reduced” and the “plasma IL-17 levels” value is “reduced”.

For `Cc1ccc([C@@H](NC(=O)Cc2ccc3oc([C@@H](O)c4c(C)noc4C)cc3c2)c2ccccc2)c(C)c1` [TMP778], the “efficacy in psoriasis model” value in experiment [3] is recorded as “efficacious”.

For `Cc1ccc(C(NC(=O)Cc2ccc(N3CCS(=O)(=O)CC3)cc2)c2ccc(C)o2)c(N2CCCCC2)c1` (stereo not drawn) [Cpd. 6, 2-[4-(1,1-dioxo-1-thiomorpholin-4-yl)phenyl]-N-{[4-methyl-2-(piperidin-1-yl)phenyl](5-methylfuran-2-yl)methyl}acetamide], the IC50 in experiment [4] is below 0.1 µM; in experiment [5] it was below 1 µM; in experiment [6] it was below 1 µM.

With `Cc1ccc(C(NC(=O)Cc2ccc(N3CCS(=O)(=O)CC3)c(C)c2)c2ccccc2)c(N2CC3CC3C2)c1` (stereo not drawn) [Cpd. 23, N-[(2-{3-azabicyclo[3.1.0]hexan-3-yl}-4-methylphenyl)(phenyl)methyl]-2-[4-(1,1-dioxo-1-thiomorpholin-4-yl)-3-methylphenyl]acetamide], the results for the concentration for half-maximal inhibition (IC50) in experiment [4], in experiment [5] and in experiment [6] were below 0.1 µM, 0.1 to 1 µM and 0.1 to 1 µM, respectively.

With `Cc1ccc(C(NC(=O)Cc2cc(N3CCS(=O)(=O)CC3)ccc2C)c2ccc(C)o2)c(N2CCCCC2)c1` (stereo not drawn) [Cpd. 5, 2-[5-(1,1-dioxo-1-thiomorpholin-4-yl)-2-methylphenyl]-N-{[4-methyl-2-(piperidin-1-yl)phenyl](5-methylfuran-2-yl)methyl}acetamide], the half-maximal inhibitory concentration (IC50) in experiment [4], in experiment [5] and in experiment [6] was 0.1 to 1 µM each time.

As to `Cc1ccc(C(NC(=O)Cc2ccc(N3CCS(=O)(=O)CC3)cc2)c2ccccc2)c(N2CC3CC3C2)c1` (stereo not drawn) [Cpd. 22, N-[(2-{3-azabicyclo[3.1.0]hexan-3-yl}-4-methylphenyl)(phenyl)methyl]-2-[4-(1,1-dioxo-1-thiomorpholin-4-yl)phenyl]acetamide], the values for the half-inhibitory concentration (IC50) in experiment [4], in experiment [5] and in experiment [6] were below 0.1 µM, below 1 µM and 0.1 to 1 µM, respectively.

Regarding `Cc1ccc(C(NC(=O)C2(c3ccc(N4CCS(=O)(=O)CC4)cc3)CC2)c2ccccc2N2CCCCC2)o1` (stereo not drawn) [Cpd. 60, 1-[4-(1,1-dioxo-1-thiomorpholin-4-yl)phenyl]-N-[(5-methylfuran-2-yl)[2-(piperidin-1-yl)phenyl]methyl]cyclopropane-1-carboxamide], the IC50 in experiment [4] is 0.1 to 1 µM; in experiment [5], below 1 µM; in experiment [6], below 1 µM.

As usually defined, the IC50 is the point on the concentration scale where inhibition reaches its midpoint.
